Reference: ChEMBL document CHEMBL1201861, “Genomics of Drug Sensitity in Cancer screening data, Wellcome Trust Sanger Institute”

Assays:
Experiment in all cases: cells
Assay type in all cases: functional, cell-based, Homo sapiens
GAMG = settings: Homo sapiens, GAMG;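 further: cell growth inhibition measured by a viability assay in the GAMG human cell line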
Description: SANGER: Inhibition of human GAMG cell growth in a cell viability assay.

GMS-10 = settings: Homo sapiens, GMS-10;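 further: growth inhibition of GMS-10 cells, read out as cell viability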
Description: SANGER: Inhibition of human GMS-10 cell growth in a cell viability assay.

GP5d = settings: Homo sapiens, GP5d;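 further: growth inhibition of human GP5d cells, read out with a cell viability assay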
Description: SANGER: Inhibition of human GP5d cell growth in a cell viability assay.

HCC1419 = settings: Homo sapiens, HCC1419;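 further: growth inhibition of human HCC1419 cells, read out as cell viability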
Description: SANGER: Inhibition of human HCC1419 cell growth in a cell viability assay.

HN = settings: Homo sapiens, HN
Description: SANGER: Inhibition of human HN cell growth in a cell viability assay.

HO-1-N-1 = settings: Homo sapiens, HO-1-N-1;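 further: growth inhibition of human HO-1-N-1 cells, read out with a cell viability assay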
Description: SANGER: Inhibition of human HO-1-N-1 cell growth in a cell viability assay.

HT-1080 = settings: Homo sapiens, HT-1080
Description: SANGER: Inhibition of human HT-1080 cell growth in a cell viability assay.

Kasumi 1 = settings: Homo sapiens, Kasumi 1;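 further: growth inhibition of human Kasumi-1 cells, read out by a cell viability assay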
Description: SANGER: Inhibition of human KASUMI-1 cell growth in a cell viability assay.

KNS-62 = settings: Homo sapiens, KNS-62;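 further: inhibition of cell growth, read out with a cell viability assay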
Description: SANGER: Inhibition of human KNS-62 cell growth in a cell viability assay.

KYSE-510 = settings: Homo sapiens, KYSE-510;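 further: cell viability readout used to measure how strongly growth of the cell line is suppressed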
Description: SANGER: Inhibition of human KYSE-510 cell growth in a cell viability assay.

M059J = settings: Homo sapiens, M059J;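 further: growth inhibition of M059J cells, read out with a cell viability assay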
Description: SANGER: Inhibition of human M059J cell growth in a cell viability assay.

MEL-HO = settings: Homo sapiens, MEL-HO
Description: SANGER: Inhibition of human MEL-HO cell growth in a cell viability assay.

NCI-H1563 = settings: Homo sapiens, NCI-H1563;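 further: growth inhibition of human NCI-H1563 cells, read out with a cell viability assay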
Description: SANGER: Inhibition of human NCI-H1563 cell growth in a cell viability assay.

NCI-H28 = settings: Homo sapiens, NCI-H28;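 further: growth inhibition of human NCI-H28 cells, read out as cell viability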
Description: SANGER: Inhibition of human NCI-H28 cell growth in a cell viability assay.

NCI-H630 = settings: Homo sapiens, NCI-H630;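 further: growth inhibition of NCI-H630 cells, read out with a cell viability assay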
Description: SANGER: Inhibition of human NCI-H630 cell growth in a cell viability assay.

OC-314 = settings: Homo sapiens, OC-314
Description: SANGER: Inhibition of human OC-314 cell growth in a cell viability assay.

OVCAR-3 = settings: Homo sapiens, OVCAR-3;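 further: growth inhibition of human OVCAR-3 cells, determined by a cell viability assay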
Description: SANGER: Inhibition of human OVCAR-3 cell growth in a cell viability assay.

PC-3 = settings: Homo sapiens, PC-3
Description: SANGER: Inhibition of human PC-3 cell growth in a cell viability assay.

RO82-W-1 = settings: Homo sapiens, RO82-W-1;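 further: growth inhibition of human RO82-W-1 cells, measured with a cell viability assay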
Description: SANGER: Inhibition of human RO82-W-1 cell growth in a cell viability assay.

SK-LU-1 = settings: Homo sapiens, SK-LU-1;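 further: cell viability assay measuring growth inhibition of human SK-LU-1 cells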
Description: SANGER: Inhibition of human SK-LU-1 cell growth in a cell viability assay.

SNU-387 = settings: Homo sapiens, SNU-387
Description: SANGER: Inhibition of human SNU-387 cell growth in a cell viability assay.

SW1463 = settings: Homo sapiens, SW1463;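 further: growth inhibition of SW1463 cells, determined with a cell viability assay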
Description: SANGER: Inhibition of human SW1463 cell growth in a cell viability assay.

BCPAP = settings: Homo sapiens, BCPAP;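 further: growth inhibition of BCPAP cells, read out in a cell viability assay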
Description: SANGER: Inhibition of human BCPAP cell growth in a cell viability assay.

BXPC-3 = settings: Homo sapiens, BXPC-3;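 further: growth inhibition of human BxPC-3 cells, read out by a cell viability assay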
Description: SANGER: Inhibition of human BxPC-3 cell growth in a cell viability assay.

CAKI-1 = settings: Homo sapiens, CAKI-1;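 further: growth inhibition of CAKI-1 cells, measured by a cell viability assay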
Description: SANGER: Inhibition of human CAKI-1 cell growth in a cell viability assay.

CAL-54 = settings: Homo sapiens, CAL-54;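 further: growth inhibition of CAL-54 cells, read out by a viability measurement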
Description: SANGER: Inhibition of human CAL-54 cell growth in a cell viability assay.

HuP-T3 = settings: Homo sapiens, HuP-T3;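 further: HuP-T3 cell growth inhibition, read out with a cell viability assay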
Description: SANGER: Inhibition of human HuP-T3 cell growth in a cell viability assay.

IGR-1 = settings: Homo sapiens, IGR-1;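 further: growth inhibition of human IGR-1 cells, read out with a cell viability assay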
Description: SANGER: Inhibition of human IGR-1 cell growth in a cell viability assay.

NCI-H2052 = settings: Homo sapiens, NCI-H2052;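 further: growth inhibition of NCI-H2052 cells, read out with a cell viability assay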
Description: SANGER: Inhibition of human NCI-H2052 cell growth in a cell viability assay.

NCI-H596 = settings: Homo sapiens, NCI-H596;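 further: growth inhibition of NCI-H596 cells, read out with a cell viability assay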
Description: SANGER: Inhibition of human NCI-H596 cell growth in a cell viability assay.

RVH-421 = settings: Homo sapiens, RVH-421
Description: SANGER: Inhibition of human RVH-421 cell growth in a cell viability assay.

CAL-85-1 = settings: Homo sapiens, CAL-85-1;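 further: growth inhibition of human CAL-85-1 cells, read out with a cell viability assay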
Description: SANGER: Inhibition of human CAL-85-1 cell growth in a cell viability assay.

VM-CUB-1 = settings: Homo sapiens, VM-CUB-1;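 further: cell viability assay measuring growth inhibition of the human VM-CUB-1 cell line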
Description: SANGER: Inhibition of human VM-CUB-1 cell growth in a cell viability assay.

COLO-680N = settings: Homo sapiens, COLO-680N;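 further: cell viability assay used to measure inhibition of COLO-680N cell growth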
Description: SANGER: Inhibition of human COLO-680N cell growth in a cell viability assay.

Measured: IC50

CN(C)C(=N)NC(=N)N [METFORMIN]
8840 µM: MEL-HO
> 20000 µM: GAMG | GMS-10 | GP5d | HCC1419 | HN | HT-1080 | KNS-62 | KYSE-510 | M059J | NCI-H630 | OC-314 | PC-3 | RO82-W-1 | SK-LU-1 | SNU-387 | SW1463 | BCPAP | BXPC-3 | CAKI-1
13200 µM: HO-1-N-1
378 µM: Kasumi 1
17600 µM: OVCAR-3
3360 µM: CAL-54
12000 µM: NCI-H28
8610 µM: NCI-H1563

CC(C)CCN1c2nc(Nc3cc(F)c(O)c(F)c3)ncc2N(C)C(=O)C1C (stereo not drawn)
4.1 µM: IGR-1
> 5 µM: GP5d | HCC1419 | HT-1080 | HuP-T3 | KNS-62 | MEL-HO | NCI-H1563 | NCI-H2052 | NCI-H28 | NCI-H596 | NCI-H630 | OC-314 | OVCAR-3 | RO82-W-1 | RVH-421 | SK-LU-1 | SNU-387 | SW1463 | BCPAP | BXPC-3 | CAKI-1 | CAL-54 | CAL-85-1 | VM-CUB-1 | COLO-680N
3.8 µM: HO-1-N-1
0.747 µM: GAMG
3.09 µM: GMS-10
3.71 µM: M059J
4.95 µM: PC-3
4.26 µM: KYSE-510
1.61 µM: HN

CS(=O)(=O)c1ccc(C(=O)Nc2ccc(Cl)c(-c3ccccn3)c2)c(Cl)c1 [VISMODEGIB]
> 10 µM: GAMG | GMS-10 | GP5d | HCC1419 | HN | HO-1-N-1 | HT-1080 | HuP-T3 | IGR-1 | KNS-62 | KYSE-510 | M059J | MEL-HO | NCI-H1563 | NCI-H2052 | NCI-H28 | NCI-H596 | NCI-H630 | OC-314 | OVCAR-3 | PC-3 | RO82-W-1 | RVH-421 | SK-LU-1 | SNU-387 | SW1463 | BCPAP | BXPC-3 | CAKI-1 | CAL-54 | CAL-85-1 | VM-CUB-1 | COLO-680N

CCN(CC)CCCCNc1ncc2cc(-c3cc(OC)cc(OC)c3)c(NC(=O)NC(C)(C)C)nc2n1 [PD-173074]
> 2 µM: GAMG | GMS-10 | GP5d | HCC1419 | HN | HO-1-N-1 | HT-1080 | HuP-T3 | IGR-1 | KNS-62 | KYSE-510 | M059J | MEL-HO | NCI-H1563 | NCI-H2052 | NCI-H28 | NCI-H596 | NCI-H630 | OC-314 | OVCAR-3 | PC-3 | RO82-W-1 | RVH-421 | SK-LU-1 | SNU-387 | SW1463 | BCPAP | BXPC-3 | CAKI-1 | CAL-54 | CAL-85-1 | VM-CUB-1 | COLO-680N

COc1cc2c(Nc3ccc(NC(=O)c4ccccc4)cc3)ncnc2cc1OCCCN1CCOCC1
1.93 µM: HN
> 4 µM: GAMG | GMS-10 | GP5d | HCC1419 | HT-1080 | HuP-T3 | IGR-1 | KNS-62 | M059J | MEL-HO | NCI-H1563 | NCI-H2052 | NCI-H28 | NCI-H596 | NCI-H630 | OC-314 | OVCAR-3 | PC-3 | RO82-W-1 | RVH-421 | SK-LU-1 | SNU-387 | SW1463 | BCPAP | BXPC-3 | CAKI-1 | CAL-54 | CAL-85-1 | COLO-680N
3.64 µM: KYSE-510
2.15 µM: HO-1-N-1
2.63 µM: VM-CUB-1
